# Target: HCV RNA-dependent RNA polymerase (NS5B) (Hepatitis C virus genotype 1b (isolate BK) (HCV), UniProt P26663)
# Experiment: RNA-Dependent RNA HCV NS5B (polymerase) Assay and IC50 Determination
# Format: biochemical
# Conditions: purified HCV NS5B polymerase, polyA:U16 substrate, 32P-UTP incorporation; read-out: IC50
# Method: RNA-Dependent RNA HCV NS5B (polymerase) Assay and IC50 Determination.
# The reaction mixtures consisted of 50 mM Hepes-KOH, pH 7.5, 5 mM MgCl2, 5 mM DTT, 2% glycerol, 0.01% Triton® X-100, 0.5 uM polyA:U16 substrate, purified HCV RNA-dependent RNA polymerase, 10 μM UTP, and ^32P-UTP (Perkin Elmer). The reaction mixtures incubated at 30° C. for 60 minutes, and then filtered through Zeta probe membrane (BioRad). The filter was washed with 5×SSC (75 mM sodium citrate, pH 7 and 750 mM NaCl), and the radiolabeled RNA products were quantitated by microbeta (Perkin Elmer). For IC50 determination, different concentrations of inhibitors were added to the polymerase reaction mixtures, and incubated at 37° C. for 60 minutes. IC50 values were determined using GraFit (Erithaus software).
# Table 1 presents IC50 data obtained using the biochemical assay to test representative compounds. Data are presented as follows: “+++” means <0.1 μM; “++” means ≥0.1 μM but <1.0 μM; “+” means ≥1.0 μM.
# Sequence of HCV RNA-dependent RNA polymerase (NS5B) (P26663 2420-3010): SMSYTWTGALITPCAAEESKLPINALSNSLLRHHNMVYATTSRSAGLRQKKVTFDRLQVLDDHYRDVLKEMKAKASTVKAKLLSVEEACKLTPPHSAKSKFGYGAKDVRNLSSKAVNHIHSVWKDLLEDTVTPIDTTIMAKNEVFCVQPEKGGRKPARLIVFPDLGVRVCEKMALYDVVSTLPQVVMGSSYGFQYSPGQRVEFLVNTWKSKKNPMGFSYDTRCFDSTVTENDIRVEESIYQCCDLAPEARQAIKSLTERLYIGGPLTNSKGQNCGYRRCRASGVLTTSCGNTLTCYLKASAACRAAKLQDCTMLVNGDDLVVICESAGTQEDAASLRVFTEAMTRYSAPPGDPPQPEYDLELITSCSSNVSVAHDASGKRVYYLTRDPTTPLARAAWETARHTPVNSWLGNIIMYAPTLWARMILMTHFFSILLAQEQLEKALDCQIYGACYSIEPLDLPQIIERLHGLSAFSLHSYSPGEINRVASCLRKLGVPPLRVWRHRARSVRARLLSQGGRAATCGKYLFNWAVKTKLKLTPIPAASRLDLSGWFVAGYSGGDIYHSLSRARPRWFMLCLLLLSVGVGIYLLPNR
row,SMILES,IC50 [nM]
1,"CNC(=O)c1c(-c2ccc(F)cc2)oc2cc(N(CCOCCOCc3cccc(C(=O)OC)c3)S(C)(=O)=O)c(C3CC3)cc12 [Compound 06-6C, 3-[2-(2-{[5-Cyclopropyl-2-(4-fluoro-phenyl)-3-methylcarbamoyl-benzofuran-6-yl]-methanesulfonyl-amino}-ethoxy)-ethoxymethyl]-benzoic acid methyl ester]",> 1000
2,"CNC(=O)c1c(-c2ccc(F)cc2)oc2cc(N(CCOCCOCCOCc3ccccc3C(=O)OC)S(C)(=O)=O)c(C3CC3)cc12 [Compound 06-6D, 2-{2-[2-(2-{[5-Cyclopropyl-2-(4-fluoro-phenyl)-3-methylcarbamoyl-benzofuran-6-yl]-methanesulfonyl-amino}-ethoxy)-ethoxy]-ethoxymethyl}-benzoic acid methyl ester]",100 to 1000
3,"CNC(=O)c1c(-c2ccc(F)cc2)oc2cc(N(CCOCCOCCOCc3ccc(C(=O)OC)cc3)S(C)(=O)=O)c(C3CC3)cc12 [Compound 06-6E, 4-{2-[2-(2-{[5-Cyclopropyl-2-(4-fluoro-phenyl)-3-methylcarbamoyl-benzofuran-6-yl]-methanesulfonyl-amino}-ethoxy)-ethoxy]-ethoxymethyl}-benzoic acid methyl ester]",100 to 1000
4,"CNC(=O)c1c(-c2ccc(F)cc2)oc2cc(N(CCOCCOCCOCc3cccc(C(=O)OC)c3)S(C)(=O)=O)c(C3CC3)cc12 [Compound 06-6F, 3-{2-[2-(2-{[5-Cyclopropyl-2-(4-fluoro-phenyl)-3-methylcarbamoyl-benzofuran-6-yl]-methanesulfonyl-amino}-ethoxy)-ethoxy]-ethoxymethyl}-benzoic acid methyl ester]",> 1000
5,"CNC(=O)c1c(-c2ccc(F)cc2)oc2cc(N(CCOCCOCCOCc3ccccc3C(=O)O)S(C)(=O)=O)c(C3CC3)cc12 [Compound 06-7D, 2-{2-[2-(2-{[5-Cyclopropyl-2-(4-fluoro-phenyl)-3-methylcarbamoyl-benzofuran-6-yl]-methanesulfonyl-amino}-ethoxy)-ethoxy]-ethoxymethyl}-benzoic Acid]",100 to 1000
6,"CNC(=O)c1c(-c2ccc(F)cc2)oc2cc(N(CCOCCOCCOCc3ccc(C(=O)O)cc3)S(C)(=O)=O)c(C3CC3)cc12 [Compound 06-7E, 4-{2-[2-(2-{[5-Cyclopropyl-2-(4-fluoro-phenyl)-3-methylcarbamoyl-benzofuran-6-yl]-methanesulfonyl-amino}-ethoxy)-ethoxy]-ethoxymethyl}-benzoic Acid]",100 to 1000
7,"CNC(=O)c1c(-c2ccc(F)cc2)oc2cc(N(CCOCCOCCOCc3cccc(C(=O)O)c3)S(C)(=O)=O)c(C3CC3)cc12 [Compound 06-7F, 3-{2-[2-(2-{[5-Cyclopropyl-2-(4-fluoro-phenyl)-3-methylcarbamoyl-benzofuran-6-yl]-methanesulfonyl-amino}-ethoxy)-ethoxy]-ethoxymethyl}-benzoic Acid]",< 100
8,"CCOC(=O)c1ccc(COCCOCCN(c2cc3oc(-c4ccc(F)cc4)c(C(=O)NC)c3cc2C2CC2)S(C)(=O)=O)cc1 [Compound 06-8B1, 4-[2-(2-{[5-Cyclopropyl-2-(4-fluoro-phenyl)-3-methylcarbamoyl-benzofuran-6-yl]-methanesulfonyl-amino}-ethoxy)-ethoxymethyl]-benzoic Acid Ethyl Ester]",> 1000
9,"CCCCOC(=O)c1ccc(COCCOCCN(c2cc3oc(-c4ccc(F)cc4)c(C(=O)NC)c3cc2C2CC2)S(C)(=O)=O)cc1 [Compound 06-8B3, 4-[2-(2-{[5-Cyclopropyl-2-(4-fluoro-phenyl)-3-methylcarbamoyl-benzofuran-6-yl]-methanesulfonyl-amino}-ethoxy)-ethoxymethyl]-benzoic Acid Butyl Ester]",100 to 1000
10,"CCCCCOC(=O)c1ccc(COCCOCCN(c2cc3oc(-c4ccc(F)cc4)c(C(=O)NC)c3cc2C2CC2)S(C)(=O)=O)cc1 [Compound 06-8B4, 4-[2-(2-{[5-Cyclopropyl-2-(4-fluoro-phenyl)-3-methylcarbamoyl-benzofuran-6-yl]-methanesulfonyl-amino}-ethoxy)-ethoxymethyl]-benzoic Acid Pentyl Ester]",100 to 1000
11,"CNC(=O)c1c(-c2ccc(F)cc2)oc2cc(N(CCOCCOCc3ccc(C(=O)OCC(N)=O)cc3)S(C)(=O)=O)c(C3CC3)cc12 [Compound 06-8B5, 4-[2-(2-{[5-Cyclopropyl-2-(4-fluoro-phenyl)-3-methylcarbamoyl-benzofuran-6-yl]-methanesulfonyl-amino}-ethoxy)-ethoxymethyl]-benzoic Acid Carbamoylmethyl Ester]",100 to 1000
12,"CNC(=O)c1c(-c2ccc(F)cc2)oc2cc(N(CCOCCOCc3ccc(C(=O)OCSC)cc3)S(C)(=O)=O)c(C3CC3)cc12 [Compound 06-8B6, 4-[2-(2-{[5-Cyclopropyl-2-(4-fluoro-phenyl)-3-methylcarbamoyl-benzofuran-6-yl]-methanesulfonyl-amino}-ethoxy)-ethoxymethyl]-benzoic Acid Methylsulfanylmethyl Ester]",100 to 1000
13,"CNC(=O)c1c(-c2ccc(F)cc2)oc2cc(N(CCOCCOCc3ccc(C(=O)OCc4ccccc4)cc3)S(C)(=O)=O)c(C3CC3)cc12 [Compound 06-8B7, 4-[2-(2-{[5-Cyclopropyl-2-(4-fluoro-phenyl)-3-methylcarbamoyl-benzofuran-6-yl]-methanesulfonyl-amino}-ethoxy)-ethoxymethyl]-benzoic Acid Benzyl Ester]",100 to 1000
14,"CCOC(=O)COC(=O)c1ccc(COCCOCCN(c2cc3oc(-c4ccc(F)cc4)c(C(=O)NC)c3cc2C2CC2)S(C)(=O)=O)cc1 [Compound 06-8B8, 4-[2-(2-{[5-Cyclopropyl-2-(4-fluoro-phenyl)-3-methylcarbamoyl-benzofuran-6-yl]-methanesulfonyl-amino}-ethoxy)-ethoxymethyl]-benzoic Acid Ethoxycarbonylmethyl Ester]",100 to 1000
15,"CNC(=O)c1c(-c2ccc(F)cc2)oc2cc(N(CCNC(=O)CNC(=O)CCCC(=O)O)S(C)(=O)=O)c(C3CC3)cc12 [Compound 07-7, 4-{[(2-{[5-Cyclopropyl-2-(4-fluoro-phenyl)-3-methylcarbamoyl-benzofuran-6-yl]-methanesulfonyl-amino}-ethylcarbamoyl)-methyl]-carbamoyl}-butyric Acid]",> 1000
16,"CNC(=O)c1c(-c2ccc(F)cc2)oc2cc(N(CCNC(=O)CNC(=O)c3cccc(CCCC(=O)O)c3)S(C)(=O)=O)c(C3CC3)cc12 [Compound 07-10, 4-(3-{[(2-{[5-Cyclopropyl-2-(4-fluoro-phenyl)-3-methylcarbamoyl-benzofuran-6-yl]-methanesulfonyl-amino}-ethylcarbamoyl)-methyl]-carbamoyl}-phenyl)-butyric Acid]",> 1000
17,"CNC(=O)c1c(-c2ccc(F)cc2)oc2cc(N(CC(=O)N(C)CC(=O)NCc3cccc(C(=O)C=C(O)C(=O)O)c3)S(C)(=O)=O)c(C3CC3)cc12 [Compound 09-14B, 4-[3-({2-[(2-{[5-Cyclopropyl-2-(4-fluoro-phenyl)-3-methylcarbamoyl-benzofuran-6-yl]-methanesulfonyl-amino}-acetyl)-methyl-amino]-acetylamino}-methyl)-phenyl]-2-hydroxy-4-oxo-but-2-enoic acid]",> 1000
18,"CNC(=O)c1c(-c2ccc(F)cc2)oc2cc(N(CC(=O)NC3(C(=O)NCc4cccc(C(=O)C=C(O)C(=O)O)c4)CC3)S(C)(=O)=O)c(C3CC3)cc12 [Compound 09-14D, 4-[3-({[1-(2-{[5-Cyclopropyl-2-(4-fluoro-phenyl)-3-methylcarbamoyl-benzofuran-6-yl]-methanesulfonyl-amino}-acetylamino)-cyclopropanecarbonyl]-amino}-methyl)-phenyl]-2-hydroxy-4-oxo-but-2-enoic Acid]",> 1000
19,"CNC(=O)c1c(-c2ccc(F)cc2)oc2cc(N(CC(=O)NCC(=O)NCCCCC(=O)OC)S(C)(=O)=O)c(C3CC3)cc12 [Compound 10-3A, 5-[2-(2-{[5-Cyclopropyl-2-(4-fluoro-phenyl)-3-methylcarbamoyl-benzofuran-6-yl]-methanesulfonyl-amino}-acetylamino)-acetylamino]-pentanoic Acid Methyl Ester]",> 1000
20,"CNC(=O)c1c(-c2ccc(F)cc2)oc2cc(N(CC(=O)NCC(=O)NCCCC(C)C(=O)OC)S(C)(=O)=O)c(C3CC3)cc12 (stereo not shown) [Compound 10-3B, 5-[2-(2-{[5-Cyclopropyl-2-(4-fluoro-phenyl)-3-methylcarbamoyl-benzofuran-6-yl]-methanesulfonyl-amino}-acetylamino)-acetylamino]-2-methyl-pentanoic Acid Methyl Ester]",> 1000
21,"CNC(=O)c1c(-c2ccc(F)cc2)oc2cc(N(CC(=O)NCC(=O)NCCCCC(=O)O)S(C)(=O)=O)c(C3CC3)cc12 [Compound 10-4A, 5-[2-(2-{[5-Cyclopropyl-2-(4-fluoro-phenyl)-3-methylcarbamoyl-benzofuran-6-yl]-methanesulfonyl-amino}-acetylamino)-acetylamino]-pentanoic Acid]",> 1000
22,"CNC(=O)c1c(-c2ccc(F)cc2)oc2cc(N(CC(=O)NCC(=O)NCCCC(C)C(=O)O)S(C)(=O)=O)c(C3CC3)cc12 (stereo not shown) [Compound 10-4B, 5-[2-(2-{[5-Cyclopropyl-2-(4-fluoro-phenyl)-3-methylcarbamoyl-benzofuran-6-yl]-methanesulfonyl-amino}-acetylamino)-acetylamino]-2-methyl-pentanoic Acid]",> 1000

# Source: patent US10947210B2 (priority 2015, dated 2021)
